This is an account of results in ChEMBL document CHEMBL1201862, “PubChem BioAssay data set” (2004).

What all share (type): functional
Assay [1] has as its target Serine/threonine-protein kinase PAK 4 (Homo sapiens, UniProt O96013).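 Also: value obtained within a kinome profiling panel in which PAK4 was one of the panel members.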
In assay [2] the target is Inhibitor of nuclear factor kappa-B kinase subunit epsilon (Homo sapiens, UniProt Q14164). Put plainly: Navigating the Kinome. Panel member name: IKBKE.
For assay [3], the target named is Platelet-derived growth factor receptor alpha (Homo sapiens, UniProt P16234). As to the kind of experiment: Navigating the Kinome. Panel member name: PDGFRA.
For assay [4], the target named is Serine/threonine-protein kinase Nek2 (Homo sapiens, UniProt P51955).
Assay [5] has as its target Homeodomain-interacting protein kinase 4 (Homo sapiens, UniProt Q8NE63).
Assay [6] addresses MAP kinase-activated protein kinase 3 (Homo sapiens, UniProt Q16644).
The target of assay [7] is MAP/microtubule affinity-regulating kinase 3 (Homo sapiens, UniProt P27448).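 Also: MARK3 affinity measured as one member of a kinome panel.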
Assay [8] concerns the target Tyrosine-protein kinase JAK2 (Homo sapiens, UniProt O60674).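 Also: JAK2 tested as one member of a kinase panel.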
Assay [9] concerns the target Cyclin-dependent kinase 9 (Homo sapiens, UniProt P50750).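 Also: value from the CDK9 entry of a kinome-spanning kinase panel.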
Another assay addresses T1, Protein Tat (Human immunodeficiency virus type 1 group M subtype B (isolate HXB2)(HIV-1), UniProt P04608).
T1 sequence (P04608 whole entry): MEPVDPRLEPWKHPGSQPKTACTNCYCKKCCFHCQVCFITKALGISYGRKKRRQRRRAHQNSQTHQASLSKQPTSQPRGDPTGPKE

The source made the active and inactive calls. Bounds are passed on as bounds.

In general, Ki refers to the equilibrium dissociation constant of an inhibitor or competing ligand from its target. As usually defined, the IC50 is the concentration that gives 50% inhibition.
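For IC50 in this document: tat binding to TAR RNA read out by fluorescence polarization.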

Sequence of Homeodomain-interacting protein kinase 4 (Q8NE63 whole entry): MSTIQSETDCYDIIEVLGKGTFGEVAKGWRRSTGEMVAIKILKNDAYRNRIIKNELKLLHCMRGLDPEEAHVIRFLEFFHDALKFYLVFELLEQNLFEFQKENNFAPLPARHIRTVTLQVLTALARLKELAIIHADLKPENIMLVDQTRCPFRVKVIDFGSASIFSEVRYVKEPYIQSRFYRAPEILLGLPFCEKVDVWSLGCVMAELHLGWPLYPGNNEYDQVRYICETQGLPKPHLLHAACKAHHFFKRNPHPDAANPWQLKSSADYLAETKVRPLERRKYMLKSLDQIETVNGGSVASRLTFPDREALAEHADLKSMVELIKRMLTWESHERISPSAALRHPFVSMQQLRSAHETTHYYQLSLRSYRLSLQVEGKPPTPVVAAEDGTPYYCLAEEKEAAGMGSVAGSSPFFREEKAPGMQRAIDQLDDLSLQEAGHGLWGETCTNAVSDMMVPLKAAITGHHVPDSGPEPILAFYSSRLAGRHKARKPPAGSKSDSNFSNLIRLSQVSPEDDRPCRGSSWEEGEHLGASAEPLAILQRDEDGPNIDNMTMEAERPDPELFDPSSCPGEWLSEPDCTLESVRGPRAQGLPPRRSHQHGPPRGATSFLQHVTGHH
Sequence of Inhibitor of nuclear factor kappa-B kinase subunit epsilon (Q14164 whole entry): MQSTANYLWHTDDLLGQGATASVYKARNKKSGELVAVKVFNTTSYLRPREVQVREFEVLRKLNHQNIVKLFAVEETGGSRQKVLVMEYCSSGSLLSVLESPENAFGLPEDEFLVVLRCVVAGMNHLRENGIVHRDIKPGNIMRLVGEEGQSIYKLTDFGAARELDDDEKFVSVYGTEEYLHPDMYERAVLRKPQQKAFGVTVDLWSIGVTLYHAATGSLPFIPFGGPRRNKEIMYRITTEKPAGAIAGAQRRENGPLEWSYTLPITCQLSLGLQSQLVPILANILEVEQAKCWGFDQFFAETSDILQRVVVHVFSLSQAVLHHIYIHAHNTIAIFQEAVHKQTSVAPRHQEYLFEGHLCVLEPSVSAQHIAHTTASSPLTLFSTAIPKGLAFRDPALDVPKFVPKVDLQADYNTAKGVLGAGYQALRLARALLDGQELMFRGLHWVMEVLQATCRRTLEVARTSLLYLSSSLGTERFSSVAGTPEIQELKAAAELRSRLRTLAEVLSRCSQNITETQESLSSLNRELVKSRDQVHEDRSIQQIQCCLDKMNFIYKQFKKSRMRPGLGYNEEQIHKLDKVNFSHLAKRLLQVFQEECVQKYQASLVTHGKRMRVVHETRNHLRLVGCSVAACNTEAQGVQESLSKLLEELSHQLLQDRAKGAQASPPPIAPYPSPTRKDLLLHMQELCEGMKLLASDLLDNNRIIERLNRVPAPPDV
Sequence of MAP/microtubule affinity-regulating kinase 3 (P27448 whole entry): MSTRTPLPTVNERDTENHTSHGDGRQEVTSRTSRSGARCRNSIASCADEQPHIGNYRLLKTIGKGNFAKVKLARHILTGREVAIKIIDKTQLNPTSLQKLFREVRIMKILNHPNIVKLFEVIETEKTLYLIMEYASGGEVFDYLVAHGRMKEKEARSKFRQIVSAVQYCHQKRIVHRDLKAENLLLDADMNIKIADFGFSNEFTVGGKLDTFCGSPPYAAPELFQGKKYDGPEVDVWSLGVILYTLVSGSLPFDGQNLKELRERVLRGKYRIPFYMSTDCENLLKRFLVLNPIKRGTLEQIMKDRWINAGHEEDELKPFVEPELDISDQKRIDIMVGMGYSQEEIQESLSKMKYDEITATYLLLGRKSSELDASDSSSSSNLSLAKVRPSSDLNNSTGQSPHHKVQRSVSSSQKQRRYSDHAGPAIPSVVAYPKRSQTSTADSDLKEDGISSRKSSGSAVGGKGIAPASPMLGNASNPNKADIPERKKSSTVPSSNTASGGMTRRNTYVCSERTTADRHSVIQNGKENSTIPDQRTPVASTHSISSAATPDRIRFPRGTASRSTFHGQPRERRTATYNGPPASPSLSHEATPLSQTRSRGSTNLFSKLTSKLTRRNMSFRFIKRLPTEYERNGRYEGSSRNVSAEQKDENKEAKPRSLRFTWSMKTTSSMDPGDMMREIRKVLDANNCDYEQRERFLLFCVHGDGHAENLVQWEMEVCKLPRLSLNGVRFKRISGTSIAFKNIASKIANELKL
Sequence of Serine/threonine-protein kinase Nek2 (P51955 whole entry): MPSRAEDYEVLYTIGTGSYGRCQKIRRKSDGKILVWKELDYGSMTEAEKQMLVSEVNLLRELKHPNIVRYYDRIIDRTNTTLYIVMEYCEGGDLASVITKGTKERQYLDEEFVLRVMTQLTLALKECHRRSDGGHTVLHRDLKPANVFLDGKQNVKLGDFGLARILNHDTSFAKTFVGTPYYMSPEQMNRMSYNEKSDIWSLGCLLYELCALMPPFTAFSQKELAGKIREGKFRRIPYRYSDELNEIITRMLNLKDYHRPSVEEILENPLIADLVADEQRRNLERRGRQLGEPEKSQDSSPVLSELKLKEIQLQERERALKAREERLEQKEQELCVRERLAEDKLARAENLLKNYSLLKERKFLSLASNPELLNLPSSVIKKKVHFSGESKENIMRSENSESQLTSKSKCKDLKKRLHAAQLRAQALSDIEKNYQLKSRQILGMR
Sequence of Serine/threonine-protein kinase PAK 4 (O96013 whole entry): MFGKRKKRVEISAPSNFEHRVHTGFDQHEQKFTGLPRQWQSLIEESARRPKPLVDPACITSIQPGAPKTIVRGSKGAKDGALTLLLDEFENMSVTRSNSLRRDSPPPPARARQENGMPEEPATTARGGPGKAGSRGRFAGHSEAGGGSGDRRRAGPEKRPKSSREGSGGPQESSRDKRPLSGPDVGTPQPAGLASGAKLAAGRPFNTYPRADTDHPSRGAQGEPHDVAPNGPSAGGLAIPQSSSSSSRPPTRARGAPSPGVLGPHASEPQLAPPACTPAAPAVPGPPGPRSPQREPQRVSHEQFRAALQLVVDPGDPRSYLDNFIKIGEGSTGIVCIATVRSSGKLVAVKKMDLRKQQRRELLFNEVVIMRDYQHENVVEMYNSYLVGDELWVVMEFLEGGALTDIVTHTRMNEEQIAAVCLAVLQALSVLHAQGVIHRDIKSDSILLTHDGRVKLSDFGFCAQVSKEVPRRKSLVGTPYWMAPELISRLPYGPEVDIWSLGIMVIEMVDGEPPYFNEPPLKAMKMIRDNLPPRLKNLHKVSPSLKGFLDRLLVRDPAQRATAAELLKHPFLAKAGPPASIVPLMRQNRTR
Sequence of MAP kinase-activated protein kinase 3 (Q16644 whole entry): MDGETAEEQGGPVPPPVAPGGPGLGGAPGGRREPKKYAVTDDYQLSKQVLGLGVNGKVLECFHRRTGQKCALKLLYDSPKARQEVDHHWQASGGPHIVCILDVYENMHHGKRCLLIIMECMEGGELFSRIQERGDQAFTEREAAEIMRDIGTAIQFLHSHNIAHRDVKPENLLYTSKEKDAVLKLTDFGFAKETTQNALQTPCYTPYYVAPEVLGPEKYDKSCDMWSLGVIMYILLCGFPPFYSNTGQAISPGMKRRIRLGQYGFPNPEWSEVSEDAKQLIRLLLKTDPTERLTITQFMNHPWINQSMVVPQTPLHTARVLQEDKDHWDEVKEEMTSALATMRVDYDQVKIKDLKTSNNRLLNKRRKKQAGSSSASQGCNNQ
Sequence of Platelet-derived growth factor receptor alpha (P16234 whole entry): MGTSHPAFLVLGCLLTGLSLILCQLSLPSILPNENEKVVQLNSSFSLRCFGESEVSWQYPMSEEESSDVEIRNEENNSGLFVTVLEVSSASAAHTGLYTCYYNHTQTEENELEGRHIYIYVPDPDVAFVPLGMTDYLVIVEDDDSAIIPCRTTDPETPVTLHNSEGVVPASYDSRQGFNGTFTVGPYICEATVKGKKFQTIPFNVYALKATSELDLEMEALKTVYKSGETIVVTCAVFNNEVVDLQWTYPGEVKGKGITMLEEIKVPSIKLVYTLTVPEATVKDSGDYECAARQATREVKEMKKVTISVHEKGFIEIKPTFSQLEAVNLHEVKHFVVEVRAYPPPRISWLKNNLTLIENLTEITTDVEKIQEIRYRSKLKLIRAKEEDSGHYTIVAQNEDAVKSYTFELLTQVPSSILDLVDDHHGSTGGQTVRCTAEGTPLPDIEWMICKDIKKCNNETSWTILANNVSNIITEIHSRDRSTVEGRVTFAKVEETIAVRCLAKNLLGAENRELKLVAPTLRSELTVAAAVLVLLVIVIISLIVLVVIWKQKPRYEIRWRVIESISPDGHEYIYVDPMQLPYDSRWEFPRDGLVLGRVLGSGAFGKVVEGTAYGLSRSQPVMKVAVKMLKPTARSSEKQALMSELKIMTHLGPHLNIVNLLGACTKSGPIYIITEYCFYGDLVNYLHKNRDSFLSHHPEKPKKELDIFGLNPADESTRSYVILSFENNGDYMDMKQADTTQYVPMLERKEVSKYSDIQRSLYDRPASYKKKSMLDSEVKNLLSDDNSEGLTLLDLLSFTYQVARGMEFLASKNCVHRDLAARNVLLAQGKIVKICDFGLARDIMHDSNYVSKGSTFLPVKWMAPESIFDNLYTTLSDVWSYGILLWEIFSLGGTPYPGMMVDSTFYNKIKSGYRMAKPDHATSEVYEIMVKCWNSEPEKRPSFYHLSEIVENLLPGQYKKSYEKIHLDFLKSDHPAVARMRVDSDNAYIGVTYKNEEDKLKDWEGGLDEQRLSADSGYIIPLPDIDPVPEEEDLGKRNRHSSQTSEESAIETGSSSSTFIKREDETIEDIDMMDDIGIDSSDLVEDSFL
Sequence of Cyclin-dependent kinase 9 (P50750 whole entry): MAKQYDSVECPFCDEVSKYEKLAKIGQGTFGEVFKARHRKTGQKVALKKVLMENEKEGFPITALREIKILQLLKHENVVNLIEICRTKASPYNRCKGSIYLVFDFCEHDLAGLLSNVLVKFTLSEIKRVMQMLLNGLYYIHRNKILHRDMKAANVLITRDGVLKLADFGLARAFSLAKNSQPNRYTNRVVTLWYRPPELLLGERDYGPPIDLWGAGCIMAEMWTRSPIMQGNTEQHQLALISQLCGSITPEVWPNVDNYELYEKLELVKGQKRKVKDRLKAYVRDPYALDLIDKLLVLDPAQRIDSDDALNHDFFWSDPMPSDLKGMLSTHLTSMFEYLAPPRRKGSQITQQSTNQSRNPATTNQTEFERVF

Take `OC1CCC(Nc2cc(Cl)nc(-c3c[nH]c4ncccc34)n2)CC1` (stereo not given): the Ki in assay [1] is 100 nM (active); in assay [2], > 3160 nM (inactive); in [3], > 1580 nM (inactive); in assay [4], 3980 nM (active); in [5], 1000 nM (active); in assay [6] it was > 10000 nM (inactive). For the same molecule, the Ki in assay [7] was 398 nM (active); in assay [8], 158 nM (active); in assay [9] it was 251 nM (active).

For `COCC/N=c1\scc(-c2cccs2)n1/N=C/c1ccc(O)c(O)c1O`, on Protein Tat, the 50% inhibitory concentration (IC50) was > 100000 nM (inconclusive).
